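Interpolation was linear, between the two tested concentrations surrounding the appropriate level; five concentrations were tested over 48 hours in 96-well plates. GI50 is the concentration that inhibits growth by half.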 Calls of active or inactive are those of the source. Cut-off read from the data, not from the text of the source: active = GI50 up to about 1.1 µM and inactive = higher.
Key:
Test in all cases: NCI tumour cell line growth inhibition, 48 h
[1] = tested on: UACC-257
[2] = tested on: KM12
[3] = tested on: OVCAR-8
[4] = tested on: SK-OV-3
[5] = tested on: ACHN
[6] = tested on: NCI/ADR-RES
[7] = tested on: LOX IMVI
[8] = tested on: BT-549
[9] = tested on: MCF7
[10] = tested on: SR
[11] = tested on: SK-MEL-28
[12] = tested on: DU-145
[13] = tested on: PC-3
[14] = tested on: HT-29
[15] = tested on: RXF 393
[16] = tested on: Hs-578T
[17] = tested on: IGROV-1
[18] = tested on: EKVX
[19] = tested on: CCRF-CEM
[20] = tested on: MOLT-4

SMILES | GI50 [1] | GI50 [2] | GI50 [3] | GI50 [4] | GI50 [5] | GI50 [6] | GI50 [7] | GI50 [8] | GI50 [9] | GI50 [10] | GI50 [11] | GI50 [12] | GI50 [13] | GI50 [14] | GI50 [15] | GI50 [16] | GI50 [17] | GI50 [18] | GI50 [19] | GI50 [20]
O=C(O)C(Br)C(Br)c1ccccc1[N+](=O)[O-] (stereo not drawn) | > 100 µM (inactive) | > 100 µM (inactive) | > 100 µM (inactive) | > 100 µM (inactive) | > 100 µM (inactive) | > 100 µM (inactive) | > 100 µM (inactive) | > 100 µM (inactive) | > 100 µM (inactive) | > 100 µM (inactive) | > 100 µM (inactive) | > 100 µM (inactive) | > 100 µM (inactive) | > 100 µM (inactive) | > 100 µM (inactive) | > 100 µM (inactive) | > 100 µM (inactive) | > 100 µM (inactive) |  | 
COc1ccc(NC(=S)Nc2cc(C)cc(C)n2)cc1 | > 100 µM (inactive) | > 100 µM (inactive) | > 100 µM (inactive) | > 100 µM (inactive) |  | > 100 µM (inactive) | > 100 µM (inactive) | > 100 µM (inactive) | > 100 µM (inactive) | > 100 µM (inactive) | > 100 µM (inactive) | > 100 µM (inactive) | > 100 µM (inactive) | > 100 µM (inactive) | > 100 µM (inactive) | > 100 µM (inactive) | > 100 µM (inactive) | > 100 µM (inactive) | > 100 µM (inactive) | > 100 µM (inactive)
CCNC1=C(NC(=O)c2ccc(F)cc2)C(=O)c2ccccc2C1=O | 15.8 µM (inactive) | 49.9 µM (inactive) | 32.7 µM (inactive) | 18.5 µM (inactive) | > 100 µM (inactive) | 27.3 µM (inactive) |  | > 100 µM (inactive) | 30.3 µM (inactive) | 48.4 µM (inactive) | > 100 µM (inactive) | > 100 µM (inactive) | 17.3 µM (inactive) | 22.2 µM (inactive) | 29.4 µM (inactive) | > 100 µM (inactive) | 31.6 µM (inactive) | > 100 µM (inactive) | 35.8 µM (inactive) | 30.1 µM (inactive)
CCOC(=O)C(NC(=O)NC(C(=O)OCC)C(=O)OCC)C(=O)OCC | > 10 µM (inactive) |  | > 100 µM (inactive) | > 100 µM (inactive) | > 100 µM (inactive) | > 100 µM (inactive) |  | > 100 µM (inactive) | > 100 µM (inactive) | > 100 µM (inactive) | > 100 µM (inactive) | > 100 µM (inactive) | > 100 µM (inactive) | > 100 µM (inactive) | > 100 µM (inactive) | > 100 µM (inactive) | > 100 µM (inactive) | > 100 µM (inactive) |  | > 100 µM (inactive)
CC1CNc2ccccc2N=C1NN (stereo not drawn) | > 100 µM (inactive) | > 100 µM (inactive) | > 100 µM (inactive) | > 100 µM (inactive) | > 100 µM (inactive) | > 100 µM (inactive) | > 69.8 µM (inactive) | > 100 µM (inactive) | > 100 µM (inactive) | > 100 µM (inactive) | > 100 µM (inactive) | > 100 µM (inactive) | > 100 µM (inactive) | > 100 µM (inactive) | > 100 µM (inactive) | > 100 µM (inactive) | > 100 µM (inactive) | > 100 µM (inactive) | 22.7 µM (inactive) | 
N#C/C(=C\Nc1ccccn1)C(=O)c1ccco1 | > 100 µM (inactive) | > 100 µM (inactive) | > 100 µM (inactive) | > 100 µM (inactive) | > 100 µM (inactive) | > 100 µM (inactive) | > 100 µM (inactive) | > 100 µM (inactive) | > 100 µM (inactive) | > 100 µM (inactive) | > 100 µM (inactive) | > 100 µM (inactive) | > 100 µM (inactive) | > 100 µM (inactive) | > 100 µM (inactive) | > 100 µM (inactive) | > 100 µM (inactive) | > 100 µM (inactive) |  | 39.6 µM (inactive)
CCOC(=O)C(NC(=O)OCc1ccccc1)C(=O)O (stereo not drawn) | > 100 µM (inactive) | > 100 µM (inactive) | > 100 µM (inactive) |  | > 100 µM (inactive) | > 100 µM (inactive) | > 100 µM (inactive) | > 100 µM (inactive) | > 100 µM (inactive) | > 100 µM (inactive) | > 100 µM (inactive) | > 100 µM (inactive) | > 100 µM (inactive) | > 100 µM (inactive) | > 100 µM (inactive) | > 100 µM (inactive) | > 100 µM (inactive) | > 100 µM (inactive) | > 100 µM (inactive) | > 100 µM (inactive)
O=C1C(Cl)C(c2cccc(Cl)c2)N1c1ccc(-n2c(S)nc3ccccc3c2=O)cc1 (stereo not drawn) | 26.9 µM (inactive) | 28.4 µM (inactive) | 37.3 µM (inactive) | 20.6 µM (inactive) | 18.7 µM (inactive) | 25.8 µM (inactive) | 13.9 µM (inactive) | 39.4 µM (inactive) | 14.7 µM (inactive) | 10.7 µM (inactive) |  | 35.2 µM (inactive) | 27.7 µM (inactive) | 18.8 µM (inactive) | 4.08 µM (inactive) | 20.2 µM (inactive) | 5.07 µM (inactive) | 32.1 µM (inactive) | 23 µM (inactive) | 14 µM (inactive)
COC(=O)C1Cc2cc3c(cc2C1=O)CCCC3 (stereo not drawn) | > 100 µM (inactive) | 34.3 µM (inactive) | 46.6 µM (inactive) | 27.1 µM (inactive) | 94.6 µM (inactive) | 48.9 µM (inactive) | 67 µM (inactive) | 22.3 µM (inactive) | 42 µM (inactive) | 30.3 µM (inactive) | > 100 µM (inactive) | 45.8 µM (inactive) | 30.8 µM (inactive) | 61.8 µM (inactive) |  | 48.4 µM (inactive) | 67.5 µM (inactive) | 46.8 µM (inactive) | 37.2 µM (inactive) | 41.2 µM (inactive)
C[n+]1c2ccccc2c(C(=O)NC(CCCNC(=N)N)C(=O)O)c2ccccc21 (stereo not drawn) | > 100 µM (inactive) | > 100 µM (inactive) | > 100 µM (inactive) | > 100 µM (inactive) | > 100 µM (inactive) | > 100 µM (inactive) | > 100 µM (inactive) | > 100 µM (inactive) | > 100 µM (inactive) | 1.31 µM (inactive) | > 100 µM (inactive) | > 100 µM (inactive) | > 100 µM (inactive) | > 100 µM (inactive) |  | > 100 µM (inactive) | > 100 µM (inactive) | > 100 µM (inactive) |  | > 100 µM (inactive)
CCCCCCCCCC[C@H](O)[C@H]1CC[C@@H]([C@@H](O)CC[C@H](O)[C@@H]2CCC(CCCCCCC[C@@H](O)CC3=C[C@H](C)OC3=O)O2)O1 (stereo partly drawn) | 0.115 µM (active) | 1.53 µM (inactive) | 1.95 µM (inactive) |  | 1.21 µM (inactive) | 1.34 µM (inactive) | 0.212 µM (active) | 5.08 µM (inactive) | 1.49 µM (inactive) | 2.05 µM (inactive) | 1.93 µM (inactive) | 3.6 µM (inactive) | 1.57 µM (inactive) | 1.73 µM (inactive) | 2.66 µM (inactive) | 1.81 µM (inactive) | 1.78 µM (inactive) | 1.89 µM (inactive) | 1.11 µM (active) | 2.92 µM (inactive)
COC1CC(N)(c2ccccc2)C(O)C(C)O1 (stereo not drawn) | > 100 µM (inactive) |  | > 100 µM (inactive) | > 100 µM (inactive) | > 100 µM (inactive) | > 100 µM (inactive) | > 100 µM (inactive) | > 100 µM (inactive) | > 100 µM (inactive) | > 100 µM (inactive) | > 100 µM (inactive) | > 100 µM (inactive) | > 100 µM (inactive) |  | > 100 µM (inactive) | > 100 µM (inactive) | > 100 µM (inactive) | > 100 µM (inactive) | > 100 µM (inactive) | > 100 µM (inactive)
O=c1c2c3c(sc2nc(S)n1-c1ccccc1)CCCc1ccc([N+](=O)[O-])cc1-3 | 29.2 µM (inactive) | > 100 µM (inactive) | 28.8 µM (inactive) | > 100 µM (inactive) | 81.3 µM (inactive) | 25.8 µM (inactive) | 19.3 µM (inactive) | 24.8 µM (inactive) | 36.6 µM (inactive) | 27.4 µM (inactive) | > 100 µM (inactive) | 48.9 µM (inactive) | 59.7 µM (inactive) | 25.3 µM (inactive) | 16.9 µM (inactive) | 87.3 µM (inactive) | 14.2 µM (inactive) | > 100 µM (inactive) |  | 21.3 µM (inactive)
CCn1c(=O)c2c(=O)[nH][nH]c2c2ccccc21 | > 100 µM (inactive) | > 100 µM (inactive) | > 100 µM (inactive) |  | > 100 µM (inactive) | > 100 µM (inactive) | > 100 µM (inactive) | > 100 µM (inactive) | > 100 µM (inactive) | > 100 µM (inactive) | > 100 µM (inactive) | > 100 µM (inactive) | > 100 µM (inactive) | > 100 µM (inactive) |  | > 100 µM (inactive) | > 100 µM (inactive) | > 100 µM (inactive) | > 100 µM (inactive) | > 100 µM (inactive)
S=c1nc(Nc2ccccc2)c2c3c(sc2[nH]1)CCCC3 | > 100 µM (inactive) | > 100 µM (inactive) | > 100 µM (inactive) |  | > 100 µM (inactive) | > 100 µM (inactive) | > 100 µM (inactive) | > 100 µM (inactive) | > 100 µM (inactive) | 8.67 µM (inactive) | > 100 µM (inactive) | > 100 µM (inactive) | > 100 µM (inactive) | > 100 µM (inactive) | > 100 µM (inactive) | > 100 µM (inactive) | > 100 µM (inactive) | 2.32 µM (inactive) |  | > 100 µM (inactive)
